Results published in patent publication US7067625B1, “Isolated TWIK-1 potassium channel proteins” (Centre National de la Recherche Scientifique - CNRS, priority 1996, dated 2006).
pIC50: −log10 of the molar value.

Assays:
TWIK-1 [1] = biological target: T1, TWIK-1 (Homo sapiens, UniProt O00180); assay: Imposed voltage (two-microelectrode voltage-clamp) recording of TWIK-1 K+ currents in Xenopus oocytes injected with TWIK-1 cRNA; format: cell-based; parameters: expressed in transfected cells; host or cells: Xenopus laevis oocytes injected with cRNA transcribed from pEXO-TWIK-1; details: for sensitivity of the TWIK-1 channel to K+ channel openers: 100 μM
T1 sequence (O00180 1-336): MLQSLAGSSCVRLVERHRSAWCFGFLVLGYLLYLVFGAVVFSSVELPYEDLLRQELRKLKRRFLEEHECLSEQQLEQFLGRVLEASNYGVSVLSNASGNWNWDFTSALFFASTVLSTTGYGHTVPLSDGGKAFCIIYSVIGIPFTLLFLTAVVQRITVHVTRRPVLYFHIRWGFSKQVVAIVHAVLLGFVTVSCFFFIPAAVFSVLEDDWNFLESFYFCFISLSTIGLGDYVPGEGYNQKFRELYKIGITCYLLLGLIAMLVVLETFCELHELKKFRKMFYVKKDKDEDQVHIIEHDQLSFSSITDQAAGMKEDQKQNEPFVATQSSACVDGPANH
Procedure: A complementary RNA (cRNA) was transcribed of this construction and injected in the oocytes of X. laevis.
The TWIK-1 coding sequence was amplified using a low-error rate DNA polymerase (Pwo DNA pol, Boehringer) and subcloned in the plasmid pEXOii so as to yield pEXO-TWIK-1. Mutations were performed using the whole plasmid pEXO-TWIK-1 with a highly reliable PCR extension kit (Boehringer) and two adjacent primers. […] The product of the PCR was linearized by the enzyme BamHI and the cRNA were synthesized using a T7 RNA polymerase (Stratagene).
In a 0.3-ml perfusion chamber, a single oocyte was impaled on two standard glass microelectrodes (0.5–2.0 MW) charged with 3 M KCl and maintained under voltage-clamp with a Dagan TEV200 amplifier. […] Stimulation of the preparation, data acquisition and analyses were carried out with the pClamp program (Axon Instruments, USA).

TWIK-1 [2] = biological target: T1, TWIK-1; assay: Single channel patch-clamp recordings (attached and inside-out patch) of TWIK-1 in oocytes
Procedure: The pipettes were filled with a strong K^+ solution (40 mM KCl, 100 mM of potassium methane sulfonate, 1.8 mM CaCl2, 2 m M MgCl2 and 5 mM HEPES adjusted to pH 7.4 with KOH). 100 μM of GdCl3 was added to the pipette solution to inhibit the action of the activated channels. The inside-out patches were perfused with a solution containing 140 m M KCl, 10 mM CaCl2, 5 mM HEPES adjusted to pH 7.2 with KOH and 5 mM EGTA added daily. The single channel signals were filtered at 3.5 kHz and analyzed with the Biopatch program (Bio-Logic, Grenoble, France).

[3] = read-out: inhibition of TWIK-1 currents

## Nc1ccncc1 [4-aminopyridine]
TWIK-1 [1]; 1 mM
  inhibition at 1000 µM: < 10%

## Nc1ncnc2c1nc(Cl)n2[C@@H]1O[C@@H]2COP(=O)(O)O[C@H]2[C@H]1O [8-Cl-AMPc]
TWIK-1 [1]; 300 μM
  effect on the activity of TWIK-1: does not affect

## CNc1ccc2oc(C[C@H]3O[C@@]4(CC[C@H]3C)O[C@H]([C@H](C)C(=O)c3ccc[nH]3)[C@H](C)C[C@H]4C)nc2c1C(=O)O [A23187]
TWIK-1 [1]; 1 μM, elevation of cytoplasmic Ca2+
  effect on the properties of the TWIK-1 channel: without effect

## Nc1ncnc2c1ncn2[C@@H]1O[C@H](COP(=O)(O)OP(=O)(O)OP(=O)(O)O)[C@@H](O)[C@H]1O [ATP]
TWIK-1 [2]; excised patch perfused with 10 mM
  effect on the activity of the TWIK-1 channel: does not induce any effect

## [Ba+2] [Ba^2+]
TWIK-1 [1]; Xenopus oocytes, +30 mV depolarization from HP -80 mV, read-out: IC50 of inhibition of the K+ currents of TWIK-1
  pIC50: 4.00

## O=C=O [CO2]
TWIK-1 [1]; intracellular acidification by superfusion with CO2-enriched solution
  reduction in the TWIK-1 currents (of control amplitude): greater than 95%
TWIK-1 [2]; after excision of the patch, bubbling of CO2
  sensitivity of channel activity to acidification of the internal solution: insensitive

## O=[N+]([O-])c1ccc(O)c([N+](=O)[O-])c1 [DNP, dinitrophenol]
TWIK-1 [1]; intracellular acidification by DNP, 1 mM
  reduction in the TWIK-1 currents (of control amplitude): 80%

## CCCCCCCCCC(=O)O[C@@H]1[C@@H](C)[C@@]2(O)[C@@H](C=C(CO)C[C@@]3(O)C(=O)C(C)=C[C@@H]23)[C@@H]2C(C)(C)[C@]12OC(=O)CCCCCCCCC [PDA, 4α-phorbol-12, 13 didecanoate]
TWIK-1 [1]; 1 μM
  effect on the TWIK-1 currents: has no effect

## CCCCCCCCCCCCCC(=O)O[C@@H]1[C@@H](C)[C@@]2(O)[C@@H](C=C(CO)C[C@]3(O)C(=O)C(C)=C[C@@H]23)[C@@H]2C(C)(C)[C@]12OC(C)=O [PMA, phorbol-12 myristate acetate]
TWIK-1 [1]; 30 nM, perfusion 10 minutes
  effect on the TWIK-1 currents: increases the TWIK-1 currents
TWIK-1 [2]; attached patch, 30 nM PMA, +60 mV
  channels revealed in an attached patch initially expressing a single channel: at least five channels

## CC[N+](CC)(CC)CC [TEA]
TWIK-1 [1]; 20 mM
  inhibition of TWIK-1 currents: 30%

## CCCCc1oc2ccccc2c1C(=O)c1cc(I)c(OCCN(CC)CC)c(I)c1 [amiodarone]
TWIK-1 [1]; [3]
  inhibition at 100 µM: < 10%

## CC(C)C[C@@H]1NC(=O)[C@H](C)NC(=O)[C@H]([C@@H](C)O)NC(=O)[C@H](CCC(=O)O)NC(=O)[C@@H]2CCCN2C(=O)[C@H](C)NC(=O)[C@H](CCCCN)NC(=O)[C@@H]2CSSC[C@@H](C(=O)N[C@@H](CCC(N)=O)C(=O)N[C@@H](CCC(N)=O)C(=O)N[C@@H](Cc3cnc[nH]3)C(N)=O)NC(=O)[C@H](CCCNC(=N)N)NC(=O)[C@H](CCCNC(=N)N)NC(=O)[C@H](C)NC(=O)[C@H](CSSC[C@H](N)C(=O)N[C@@H](CC(N)=O)C(=O)N2)NC1=O [apamin]
TWIK-1 [1]; [3]
  inhibition at 0.3 µM: < 10%

## CCCCCCC[N+](CC)(CC)CCCCc1ccc(Cl)cc1 [clofilium]
TWIK-1 [1]
  inhibition at 30 µM: < 10%

## CC1(C)Oc2ccc(C#N)cc2C(N2CCCC2=O)C1O (stereo not drawn) [cromakaline]
TWIK-1 [1]
  sensitivity of the TWIK-1 channel to K+ channel openers: not sensitive

## COc1ccc(Cl)cc1C(=O)NCCc1ccc(S(=O)(=O)NC(=O)NC2CCCCC2)cc1 [glibenclamide]
TWIK-1 [1]
  inhibition at 30 µM: < 10%

## CC(N/C(=N\C#N)Nc1ccncc1)C(C)(C)C (stereo not drawn) [pinacidil]
TWIK-1 [1]
  sensitivity of the TWIK-1 channel to K+ channel openers: not sensitive
